# Patent US20080279812A1, “Disease Prevention and Vaccination Prior to Thymic Reactivation” (Norwood Immunology, Ltd., priority 2003, published 2008)
# Where a SMILES comes first, the peptide text is derived from it. [ ]: non-standard residue; d: D form. dPhe(4-Cl) = N[C@H](Cc1ccc(Cl)cc1)C(=O)O; d2Nal = N[C@H](Cc1ccc2ccccc2c1)C(=O)O; Lys(iPr) = CC(C)NCCCC[C@H](N)C(=O)O; NMeY = CN[C@@H](Cc1ccc(O)cc1)C(=O)O; d3Pal = N[C@H](Cc1cccnc1)C(=O)O
# B1: G-CSF: granulocyte colony stimulating factor, Neupogen (Amgen) (protein, UniProt P09919 31-207, looked up)
# Granulocyte …: TPLGPASSLPQSFLLKCLEQVRKIQGDGAALQEKLVSECATYKLCHPEELVLLGHSLGIPWAPLSSCPSQALQLAGCLSQLHSGLFLYQGLLQALEGISPELGPTLDTLQLDVADFATTIWQQMEELGMAPALQPTQGAMPAFASAFQRRAGGVLVASHLQSFLEVSYRVLRHLAQP
# modifications: filgrastim, N-terminal Met
# B2: Neulasta®: Amgen product given as single SC dose on day 2 of each chemotherapy cycle; called GM-CSF in the text (protein, UniProt P09919 31-207, looked up)
# Granulocyte …: B1 Granulocyte …
# modifications: pegfilgrastim: PEGylated, N-terminal Met
# notes: called GM-CSF in the text
# Tests used:
# sex steroids [1] = details: single injection of sufficient dose; cited from earlier work
# [2] = system: thymus, spleen and lymph node cell numbers; test: Chemical castration compared to surgical castration, T cell regeneration after cyclophosphamide; type: in vivo; details: mice
# Source text: FIG. 9: Changes in thymus (open bars), spleen (gray bars) and lymph node (black bars) cell numbers following treatment with cyclophosphamide, a chemotherapy agent, and surgical or chemical castration performed on the same day. Note the rapid expansion of the thymus in castrated animals when compared to the non-castrate (cyclophosphamide alone) group at 1 and 2 weeks post-treatment. In addition, spleen and lymph node numbers of the castrate group were well increased compared to the cyclophosphamide alone group. (n=34 per treatment group and time-point).
# T cell Depletion Using Cyclophosphamide. Old mice (e.g., 2 years old) were injected with cyclophosphamide (200 mg/kg body wt over two days) and castrated.
# FIG. 9 illustrates the use of chemical castration compared to surgical castration in enhancement of T cell regeneration. […] The enhancing effects were equivalent on thymic expansion and also the recovery of spleen and lymph node. The kinetics of chemical castration are slower than surgical, that is, mice take about 3 weeks longer to decrease their circulating sex steroid levels. However, chemical castration is still as effective as surgical castration and can be considered to have an equivalent effect.
# [3] = G-CSF with or without Lupron in small cell lung cancer patients on chemotherapy (Example 26); type: in vivo, human
# [4] = GnRH analog before allogeneic BMT (Example 27); type: in vivo, human
# Description: In a randomized unblinded study 20 patients are treated with a GnRH analog prior to receiving a BMT. This patient group is to a control group (n=19) who also undergo a BMT, but will not receive a GnRH analog.
# All patients receive an allogeneic graft from a matched donor in accordance with accepted medical techniques (Lincz et al., (2001) Leuk. and Lymph. 40: 373).
# Prior to transplant, the BM from all patients is ablated using standard ablating drugs and techniques (Segeren et al., (1999). Br. J. Haem. 105:127-130).
# Blood samples from each patient are drawn at days −21, −2, 0, 1, 2, 3, 7, 10, 14 and 21. The blood samples are then evaluated for WBC, neutrophils, T cells (by FACS analysis, as described in detail above), granulocytes levels, and hematocrit, using the methods described in detail elsewhere herein, as well as methods well known to those skilled in the art.
# Additionally, all patients are monitored for infection rates (including viral infection), the use of antibiotics, febrile neutropenia, and mean days of severe neutropenia (ANC<0.5×10^9/L). These analyses are performed as outlined above, with the patients being followed up at 1 month, 3 months, 6 months and 9 months from the date of transplant.
# [5] = GnRH agonist in metastatic prostate cancer, haemopoiesis and neutrophil count (Example 28); type: in vivo, human; details: within the first 14 days of therapy
# Description: All patients also received an anti-androgen drug. Cosudex® may also be given (5 mg/day or 50 mg/day orally) for 1 month. All patients undergo a Full Blood Analysis (FBA) prior to the commencement of therapy. FBA involves standard pathology analysis of lymphocytes, white blood cells, hematocrit and red blood cell content. In addition, analysis of immunological parameters including T cell stimulation, cytokine production, immune cell subsets and TREC analysis are performed. Additionally, blood samples from each patient are drawn at days −2, 0, 1, 2, 3, 7, 10, 14, 21, and 28, and monthly thereafter for 6 months. The blood samples are then evaluated for WBC, neutrophils, T cells (by FACS analysis, as described in detail above), granulocytes levels, and hematocrit, using the methods described in detail elsewhere herein, as well as methods well known to those skilled in the art.
# [6] = system: H1N1 strains of Influenza; type: in vivo, human; details: patients in all groups, after influenza vaccination
# sex steroids [7] = details: 30 mg injection; cited from earlier work
# thymic cellularity = test: IL-7 administration with or without castration in allogeneic HSCT recipients, thymic cellularity; type: in vivo, mice
# Source text: Mice and HSCT. Male C57BL/6J (B6, H-2b), C3FeB6F1/J([B6 3 C3H]F1; H-2b/k), B10.BR (H-2k), B6D2F1/J (H-2b/d), CBA/J (H-2k), Balb/c (H2-d), IL7−/− and KGF−/− mice were obtained from the Jackson Laboratory (Bar Harbor, Me.) and used in experiments when they were between 8 and 12 weeks of age. KGF−/− and IL7−/− were used between 4 and 7 months of age. HSCT protocols were approved by the Memorial Sloan-Kettering Cancer Center Institutional Animal Care and Use Committee. The BM cells were removed aseptically from femurs and tibias. Donor BM was depleted of T cells by incubation with anti-Thy-1.2 for 30 mins. at 4° C. followed by incubation with Low-TOX-M rabbit complement (Cedarlane Laboratories, Hornby, ON, Canada) for 1 hour at 37° C. Splenic T cells (for GVHD analysis) were obtained by purification over a nylon wool column followed by red cell removal with ammonium chloride red cell lysis buffer. Cells (5×10^6 BM cells with or without splenic T cells and leukemia cells) were resuspended in Dulbecco modified essential medium (Life Technologies, Grand Island, N.Y.) and transplanted by tail vein infusion (0.25 mL total volume) into lethally irradiated recipients on day 0. Prior to transplantation, on day 0, recipients received 1300 cGy total body irradiation (^137Cs source) as split dose with 3 hours between doses (to reduce gastrointestinal toxicity). Mice were housed in sterilized microisolator cages and received normal chow and autoclaved hyperchlorinated drinking water (pH 3.0).
# Administration of IL-7. IL-7 were either given from days 0 to 13 or 21 to 27 intraperitoneally at 10 μg/day for immune reconstitution studies. PBS was injected into control mice at the same time-points.
# Flow Cytometric Analysis. BM cells, splenocytes or thymocytes were washed in FACS buffer (phosphate buffered saline (PBS)/2% bovine serum albumin (BSA)/0.1% azide) and 1-3×10^6 cells were incubated for 30 mins. at 4° C. with CD16/CD32 FcR block. Cells were then incubated for 30 mins. at 4° C. with primary antibodies and washed twice with FACS buffer. Where necessary, cells were incubated with conjugated Streptavidin for a further 30 mins. at 4° C. The stained cells were resuspended in FACS buffer and analyzed on a FACSCalibur™ flow cytometer (Becton Dickinson, San Jose, Calif.) with CellQuest™ software.
# [8] = system: IL-7-dependent murine pre-B cell line 2E8; test: Thymidine incorporation proliferation assay with IL-7-dependent pre-B cell line; type: cell-based; details: 2E8 cell line
# Description: Tissue culture medium consisted of RPMI 1640 supplemented with 10% heat inactivated fetal calf serum, 100 U/mL penicillin, […] streptomycin, and 2 mM L-glutamine (as well as […] 2-mercaptoethanol for the culture of 32Dp210 cells and proliferation assays).
# [9] = cited from earlier work
molecule,measurement,setting,value
"CC(=O)N[C@H](Cc1ccc2ccccc2c1)C(=O)N[C@H](Cc1ccc(Cl)cc1)C(=O)N[C@H](Cc1cccnc1)C(=O)N[C@@H](CO)C(=O)N(C)[C@@H](Cc1ccc(O)cc1)C(=O)N[C@H](CC(N)=O)C(=O)N[C@@H](CC(C)C)C(=O)N[C@@H](CCCCNC(C)C)C(=O)N1CCC[C@H]1C(=O)N[C@H](C)C(N)=O [Abarelix, abarelix] (Ac-[d2Nal][dPhe(4-Cl)][d3Pal]S[NMeY][dN]L[Lys(iPr)]P[dA]-NH2)",time to castration,sex steroids [1],5 to 8 days
CCNC(=O)[C@@H]1CCCN1C(=O)[C@H](CCCN=C(N)N)NC(=O)[C@H](CC(C)C)NC(=O)[C@@H](Cc1c[nH]c2ccccc12)NC(=O)[C@H](Cc1ccc(O)cc1)NC(=O)[C@H](CO)NC(=O)[C@H](Cc1c[nH]c2ccccc12)NC(=O)[C@H](Cc1cnc[nH]1)NC(=O)[C@@H]1CCC(=O)N1 [Deslorelin],additional time to decrease circulating sex steroid levels versus surgical castration,[2],about 3 weeks
same,rate of regeneration post-cyclophosphamide treatment compared to surgical castration,[2]; injected for four weeks,comparable rate of regeneration
same,enhancing effects on thymic expansion and recovery of spleen and lymph node versus surgical castration,[2]; post-cyclophosphamide,equivalent
"CCNC(=O)[C@@H]1CCCN1C(=O)[C@H](CCCNC(=N)N)NC(=O)[C@H](CC(C)C)NC(=O)[C@@H](CC(C)C)NC(=O)[C@H](Cc1ccc(O)cc1)NC(=O)[C@H](CO)NC(=O)[C@H](Cc1c[nH]c2ccccc12)NC(=O)[C@H](Cc1c[nH]cn1)NC(=O)[C@@H]1CCC(=O)N1 [Lupron®, leuprolide acetate]",results versus higher Lupron dosage (Group 2),[3]; G-CSF plus low dose Lupron 11.25 mg (Group 3),not statistically different
same,results versus Group 2,[3]; Lupron 22.5 mg on day 14 pre-chemotherapy (Group 4),not statistically different
same,infection rates between the 2 groups,"[4]; 3, 6 and 9 months from transplant",statistically different
same,"WBC counts, mean days of severe Neutropenia (ANC <500/mm^3) and febrile neutropenia versus non-treated group",[4]; up to day 21 from transplantation,clinically and statistically significant reduction
same,incidence of viral and other infection rates between the two groups,[4]; up to month 1,not be statistically significant
same,patients with an increase in haemopoiesis (T cell analysis) and neutrophil count versus baseline,[5],approximately 70%
same,hemagglutination-inhibition antibody titer versus prior to therapy,[6],higher hemagglutination-inhibition antibody titer
same,duration of sex steroid ablation,sex steroids [7],four months
IL-7: Recombinant human IL-7 provided by Cytheris,"thymic cellularity, combined castration and IL-7 versus castrated group",thymic cellularity; day 14 after allo-HSCT,no significant difference
same,"thymic cellularity, combined castration and IL-7 versus control",thymic cellularity; day 14 after allo-HSCT,significantly more cells
same,"thymic cellularity, IL-7 treated sham-castrated versus PBS treated sham-castrated","thymic cellularity; day 14 after allo-HSCT, 10 μg/day i.p. days 0-13",no difference
same,"thymic cellularity, IL-7 alone group versus control group","thymic cellularity; day 28 after allo-HSCT, IL-7 days 21-27",significantly higher than the control group
same,effect of combination of IL-7 treatment and castration on thymic cellularity,thymic cellularity; day 28 after allogeneic HSCT,additive effect
same,proliferative effect on murine cells,[8],equal to murine IL-7
B1,neutrophils,[9]; other Phase I/II trials,measurable increases in neutrophils
same,"incidence of infection (febrile neutropenia, infection rates, in-patient hospitalization, antibiotic use)","[9]; small cell lung cancer, 4-8 μg/kg/day s.c. days 4-17 after chemotherapy, placebo-controlled",clinically and statistically significant decrease
B2,rates of febrile Neutropenia,[9]; both studies,10-20%
same,mean days of severe Neutropenia,"[9]; metastatic breast cancer, administered day 2 of chemotherapy cycle, both studies",approximately 1.7 days
